How the values were obtained:
[1] = human
[2] = human; remark: listed apart in the source
[3] = human, serum
[4] = human, serum, 4383 h
[5] = human; remark: listed apart in the source
[6] = Proposed mechanism(s) of liver damage. [column 'MEC' in source]; conditions: human
[7] = human, serum; remark: listed apart in the source
[8] = Times to onset, minimal and maximal, observed in the indexed observations. [column 'DELAI' in source]; conditions: human
[9] = human; remark: listed apart in the source
[10] = Highest frequency of acute liver toxicity observed during clinical trials, expressed as a percentage. [column '% AIGUE' in source]; conditions: human
[11] = human; remark: listed apart in the source
[12] = human; remark: listed apart in the source
[13] = Presence of at least one case with successful reintroduction. [column 'REINT' in source]; conditions: human
[14] = human; remark: listed apart in the source
[15] = human; remark: listed apart in the source
[16] = Highest frequency of moderate liver toxicity observed during clinical trials, expressed as a percentage. [column '% BIOL' in source]; conditions: human
[17] = human; remark: listed apart in the source
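Wherever Hepatotoxicity (association with vascular disease) is given: count of indexed literature references reporting vascular liver injury in humans, e.g. peliosis hepatitis, hepatic veno-occlusive disease or Budd-Chiari syndrome.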
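Wherever Hepatotoxicity (benign tumour) is given: value is a count of indexed literature references citing a benign tumour confirmed by histopathology.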
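Wherever Hepatotoxicity (choleostasis) is given: human cholestatic liver injury, shown by histopathology or by peak ALT or AST elevation over alkaline phosphatase ratio below 2, value counts indexed literature reports.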
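Wherever Hepatotoxicity (chronic liver disease) is given: chronic liver injury confirmed by histopathology or persistently raised serum aminotransferase activity beyond 6 months, value given as the count of indexed literature references.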
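Wherever Hepatotoxicity (cirrhosis) is given: value is a count of indexed literature references reporting cirrhosis confirmed by histopathology.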
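Wherever Hepatotoxicity (cytolytic) is given: human cytolytic liver injury, shown by histopathology or by a ratio above 5 of peak ALT or AST elevation to alkaline phosphatase elevation, value counts indexed references.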
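Wherever Hepatotoxicity (granulomatous hepatitis) is given: value is a count of indexed literature references reporting granulomatous liver disease confirmed by histopathology.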
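Wherever Hepatotoxicity (malignant tumour) is given: malignant tumour confirmed by histopathology, value gives the count of indexed literature references reporting it.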
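Wherever Hepatotoxicity (severe hepatitis) is given: human clinical data: severe hepatitis, meaning potentially life-threatening liver failure or clinically observed cases, the value counts how many indexed literature references report it.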
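Wherever Hepatotoxicity (steatosis) is given: steatosis confirmed by histopathology, value is the count of indexed references.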

Structure (SMILES)	Hepatotoxicity (cytolytic) [1]	Hepatotoxicity (severe hepatitis) [2]	Hepatotoxicity (moderate) [3]	Hepatotoxicity (chronic liver disease) [4]	Hepatotoxicity (association with vascular disease) [5]	Hepatotoxicity (mechanism) [6]	Hepatotoxicity (acute) [7]	Hepatotoxicity (time to onset) [8]	Hepatotoxicity (cirrhosis) [9]	Hepatotoxicity (acute) [10]	Hepatotoxicity (granulomatous hepatitis) [11]	Hepatotoxicity (choleostasis) [12]	Hepatotoxicity (successful reintroduction) [13]	Hepatotoxicity (steatosis) [14]	Hepatotoxicity (benign tumour) [15]	Hepatotoxicity (moderate) [16]	Hepatotoxicity (malignant tumour) [17]	also measured
Nc1nc(O)c2ncn(COC(CO)CO)c2n1 [GANCICLOVIR]	1	0	9	0	0	Dose-dependant	1	1 week - 26 days	0	0%	0	1	yes	0	0	55%	0	
NC(=O)NO [HYDROXYUREA]	3	1	5	0	0	Allergic	4	1 day - 3 months	0	0%	2	1	yes	0	0	12.5%	0	
O=C(CCCCC(=O)Nc1c(I)cc(I)c(C(=O)O)c1I)Nc1c(I)cc(I)c(C(=O)O)c1I [IODIPAMIDE]	6	0	2	0	0	Dose-dependant	6	3 days - 1 week	0	0%	0	0	yes	1	0	18.3%	0	
CC(C)NNC(=O)COc1ccc(Cl)cc1 [IPROCLOZIDE]	3	2	0	0	0	Toxic Metabolite	3	1 week - 1 month	0	0%	0	1	yes	0	0	0%	0	
Cc1oncc1C(=O)Nc1ccc(C(F)(F)F)cc1 [LEFLUNOMIDE]	5	3	36	0	0	Dose-dependant	6	4 weeks - 20 months	1	10%	0	0	yes	1	0	56.7%	0	
CN1C[C@H](CC#N)C[C@@H]2c3cccc4[nH]c(Cl)c(c34)C[C@H]21 [LERGOTRILE]	4	0	6	0	0	Dose-dependant	5	4 days - 5 months	0	15.8%	0	0	yes	0	0	63.2%	0	
Cc1cccc(Nc2ccccc2C(=O)O)c1C [MEFENAMIC ACID]			0	0	0		3	2 weeks	0				yes	0	0		0	Hepatotoxicity (cytolytic) ([1]; Liver): 2; Hepatotoxicity (severe hepatitis) ([2]; Liver): 1; Hepatotoxicity (mechanism) ([6]; Liver): Allergic; Hepatotoxicity (acute) ([10]; Liver): 0%; Hepatotoxicity (granulomatous hepatitis) ([11]; Liver): 0; Hepatotoxicity (choleostasis) ([12]; Liver): 1; Hepatotoxicity (moderate) ([16]; Liver): 0%
CC(=O)Oc1cc(C(C)C)c(OCCN(C)C)cc1C [MOXISYLYTE]	5	0	1	0	0	Allergic, Dose-dependant	5	8 days - 3 months	0	0%	0	1	yes	0	0	0%	0	
CCc1nn(CCCN2CCN(c3cccc(Cl)c3)CC2)c(=O)n1CCOc1ccccc1 [NEFAZODONE]	14	11	4	0	0	Allergic	16	1 week - 2 years	0	0%	0	0	yes	0	0	0%	0	
NC(=O)c1cccnc1 [NIACINAMIDE]	1	0	1	0	0	Dose-dependant	2	< 2 months - 3 months	0	0%	0	0	yes	0	0	6.3%	0	
O=C(O)c1cccnc1Nc1cccc(C(F)(F)F)c1 [NIFLUMIC ACID]	4	2	0	0	0	Allergic	4	3 days - 3.5 weeks	0	0%	0	1	yes	0	0	0%	0	
COc1ccc2[nH]c([S+]([O-])Cc3ncc(C)c(OC)c3C)nc2c1 (stereo unspecified) [OMEPRAZOLE]	8	1	24	0	0	Dose-dependant	10	2 days - 1 year	0	3.1%	0	3	yes	0	0	47%	0	
O=C1c2ccccc2C(=O)C1c1ccccc1 [PHENINDIONE]	3	1	1	0	0	Allergic	13	1 week - 2 months	0	0.2%	1	11	yes	0	0	0%	0	
